In general, IC50 refers to the concentration needed to halve the response being measured.

Like-named read-outs stand apart in the source and are kept apart here.

Experiment [1] concerns ZIKV-induced cell death in human astrocytes. Put plainly: ATP cell viability assay for ZIKV-induced cell death, human astrocytes. The experiment is classed as cell-based.
Experiment [2] has as its system ZIKV-induced caspase 3/7 activity in SNB-19 cells. Description: Caspase 3/7 activity assay, ZIKV-infected SNB-19 cells. The experiment is classed as cell-based. The settings on record: ZIKV-infected SNB-19 cells; for IC50 / Emax: Homo sapiens; for IC50: read-out: Caspase 3 (IC50, uM) SNB-19; for Emax: read-out: Caspase 3 (efficacy, %) SNB-19. On the procedure:
(§1) Caspase-Glo 3/7 assay kit (catalog number G8092; Promega, Madison, Wis.) was used to detect caspase 3/7 activity. Reagents were reconstituted as described in the protocol from the manufacturer. Polystyrene plates (384-well and 1536-well; regular tissue culture treated and PDL coated) were purchased from Greiner Bio-One (Monroe, N.C.). Cells were seeded in 384- and 1536-well assay plates and cultured at 37° C. with 5% CO2 for 16 hours. ZIKV solution was added to cells, followed by incubation at 37° C. with 5% CO2 for 6 hours. Caspase-Glo 3/7 was added to each well, unless otherwise specified, and incubated at room temperature for 30 minutes. The luminescence intensity of the assay plates was measured using a ViewLux plate reader (PerkinElmer). Data were normalized by using the cell-containing wells without ZIKV as a negative control (0% induction of caspase 3/7 activity) and wells containing ZIKV infected cells that induced caspase 3/7 activity were used as a positive control (100% induction of caspase 3/7 activity). […]
(§2) Caspase-Glo 3/7 assay kit (Promega) was used to detect caspase 3/7 activity. Reagents were reconstituted as described in the protocol from the manufacturer. Cells were seeded in 384- and 1536-well assay plates and cultured at 37° C. with 5% CO2 for 16 hours. ZIKV solution was added to cells, followed by incubation at 37° C. with 5% CO2 for 6 hours. Caspase-Glo 3/7 was added to each well at a 1:1 ratio, unless otherwise specified, and incubated at room temperature for 30 minutes. The luminescence intensity of the assay plates was measured using a ViewLux plate reader (PerkinElmer). Data was normalized by using the cell-containing wells without ZIKV as a negative (0% induction of caspase 3/7 activity) control and wells containing ZIKV infected cells that induced caspase 3/7 activity were used as a positive control (100% induction of caspase 3/7 activity). […]

Experiment [3] has as its system ZIKV-induced caspase 3/7 activity in hNPCs. Put plainly: Caspase 3/7 activity assay, ZIKV-infected hNPCs. As to conditions: ZIKV-infected hNPCs; for IC50: read-out: Caspase 3 (IC50, uM) NPCs; for Emax: read-out: Caspase 3 (efficacy, %) NPCs. Format: cell-based. How it is done:
Caspase-Glo 3/7 assay kit (catalog number G8092; Promega, Madison, Wis.) was used to detect caspase 3/7 activity. Reagents were reconstituted as described in the protocol from the manufacturer. Polystyrene plates (384-well and 1536-well; regular tissue culture treated and PDL coated) were purchased from Greiner Bio-One (Monroe, N.C.). Cells were seeded in 384- and 1536-well assay plates and cultured at 37° C. with 5% CO2 for 16 hours. ZIKV solution was added to cells, followed by incubation at 37° C. with 5% CO2 for 6 hours. Caspase-Glo 3/7 was added to each well, unless otherwise specified, and incubated at room temperature for 30 minutes. The luminescence intensity of the assay plates was measured using a ViewLux plate reader (PerkinElmer). Data were normalized by using the cell-containing wells without ZIKV as a negative control (0% induction of caspase 3/7 activity) and wells containing ZIKV infected cells that induced caspase 3/7 activity were used as a positive control (100% induction of caspase 3/7 activity).
Human NPCs were seeded onto PDL coated 1536-well assay plates at 250 cells per 3 μl/well and incubated at 37° C. in 5% CO2 for 16 hours. Test compounds dissolved in DMSO were transferred to assay plates at a volume of 23 nl/well by an automated pintool workstation (Wako Automation, San Diego, Calif.). Compounds were incubated with cells for 30 minutes at 37° C. in 5% CO2, immediately followed by the addition of 2 μl/well of ZIKV. Incubation time of compound-treated cells with ZIKV varied based on assay format. Experiments measuring virus-induced caspase 3/7 activity required a 6 hour incubation of ZIKV in the presence compounds at 37° C. in 5% CO2. Following this incubation, 3.5 μl/well of caspase 3/7 reagent mixture was added to assay plates. The plates were incubated for 30 minutes at room temperature, and the resultant luminescence signal was measured using a ViewLux plate reader (Perkin Elmer). Experiments measuring virus-induced cell death required a 72-hour incubation of ZIKV in the presence of compounds at 37° C. in 5% CO2. Following this incubation, 3.5 μl/well of ATP content detection reagent was added to assay plates, incubated for 30 minutes at the room temperature, and the resultant luminescence signal was measured in a ViewLux plate reader.
Caspase-Glo 3/7 assay kit (Promega) was used to detect caspase 3/7 activity. Reagents were reconstituted as described in the protocol from the manufacturer. Cells were seeded in 384- and 1536-well assay plates and cultured at 37° C. with 5% CO2 for 16 hours. ZIKV solution was added to cells, followed by incubation at 37° C. with 5% CO2 for 6 hours. Caspase-Glo 3/7 was added to each well at a 1:1 ratio, unless otherwise specified, and incubated at room temperature for 30 minutes. The luminescence intensity of the assay plates was measured using a ViewLux plate reader (PerkinElmer). Data was normalized by using the cell-containing wells without ZIKV as a negative (0% induction of caspase 3/7 activity) control and wells containing ZIKV infected cells that induced caspase 3/7 activity were used as a positive control (100% induction of caspase 3/7 activity).
Human NPCs were seeded onto PDL coated 1536-well assay plates at 250 cells per 3 μl/well and incubated at 37° C. in 5% CO2 for 16 hours. Test compounds dissolved in DMSO were transferred to assay plates at a volume of 23 nl/well by an automated pintool workstation (Wako Automation, San Diego, Calif.). Compounds were incubated with cells for 30 minutes at 37° C. in 5% CO2, immediately followed by the addition of 2 μl/well of ZIKV. Incubation time of compound-treated cells with ZIKV varied based on assay format. Experiments measuring virus induced caspase 3/7 activity required a 6 hour incubation of ZIKV in the presence compounds at 37° C. in 5% CO2. […]

Experiment [4] concerns ZIKV-induced caspase 3/7 activity in human astrocytes. Put plainly: Caspase 3/7 activity assay, ZIKV-infected human astrocytes. Format: cell-based. The settings on record: ZIKV-infected human astrocytes; for IC50: read-out: Caspase 3 (IC50, uM) Astrocyte; for Emax: read-out: Caspase 3 (efficacy, %) Astrocyte. On the procedure: as §1, §2
In experiment [5] the test system is ZIKV-induced cell death in SNB-19 cells. Put plainly: ATP cell viability assay for ZIKV-induced cell death, SNB-19 cells. Format: cell-based, human. As to conditions: for IC50: Homo sapiens, read-out: Cell viability (IC50, uM) SNB-19. How it is done: (§3) The reagent was reconstituted and prepared as described by the manufacturer. In order to measure the cell death caused by ZIKV infection, cells were cultured for 16 hours at 37° C. with 5% CO2 in assay plates, followed by the addition of ZIKV solution and incubation at 37° C. with 5% CO2 for 72 hours. ATPlite, the ATP monitoring reagent, was then added to the assay plates and they were incubated for 15 minutes. The resulting luminescence was measured using the ViewLux plate reader (Perkin Elmer). Data were normalized using the wells without cells as a control for 100% cell killing, and cell-containing wells without ZIKV infection were used as full cell viability (0% cell killing). […]
as §3, with “The ATPlite luminescence assay system assay kit (PerkinElmer) was used to determine cell viability. The reagent” for “The reagent”, “by the manufacture. In order” for “by the manufacturer. In order”, “followed by addition of” for “followed by the addition of”, “plates and incubated for” for “plates and they were incubated for”, “Elmer). Data was normalized using” for “Elmer). Data were normalized using”

As for `O=c1c2ccccc2[se]n1-c1ccccc1` [Ebselen], the “Cell viability (efficacy, %) Astrocyte” value in experiment [1] (ZIKV-infected human astrocytes) worked out at 0.0%. Further, the IC50 in experiment [2] was 17.3 µM; in experiment [3] (Homo sapiens), 8.2 µM; in experiment [4] (Astrocyte) it was 8.2 µM. For the same compound, the Emax amounted to 117% in experiment [2], 109% in experiment [3] (Homo sapiens) and 93.8% in experiment [4] (Astrocyte). Besides, the “Cell viability (efficacy, %) SNB-19” value in experiment [5] (ZIKV-infected SNB-19 cells) amounted to 0.0%.

Turning to `O=C(/C=C/C=C/c1ccc2c(c1)OCO2)N1CCCCC1` [Piperine], the “Cell viability (efficacy, %) Astrocyte” value in experiment [1] (ZIKV-infected human astrocytes) is recorded as 0.0%. The IC50 in experiment [2] came to 19.5 µM; in experiment [3] (Homo sapiens) it was 13.8 µM; in experiment [4] (Astrocyte), 20.6 µM. Besides, the Emax in experiment [2] was 75.5%; in experiment [3] (Homo sapiens), 66%; in experiment [4] (Astrocyte), 73.9%. The “Cell viability (efficacy, %) SNB-19” value in experiment [5] (ZIKV-infected SNB-19 cells) was 0.0%.

As for `Cc1nc(-c2ccc(OCC(C)C)c(C#N)c2)sc1C(=O)O` [Febuxostat], the “Cell viability (efficacy, %) Astrocyte” value in experiment [1] (ZIKV-infected human astrocytes) is recorded as 0.0%. Also, the IC50 was 2.91 µM in experiment [2], 3.88 µM in experiment [3] (Homo sapiens), 2.31 µM in experiment [4] (Astrocyte) and 3.66 µM in experiment [5] (ZIKV-infected SNB-19 cells). For the same compound, the Emax in experiment [2] stood at 104%; in experiment [3] (Homo sapiens), 83.2%; in experiment [4] (Astrocyte), 84.8%. The “Cell viability (efficacy, %) SNB-19” value in experiment [5] (ZIKV-infected SNB-19 cells) was 68.4%.

For the compound `O=C1C[C@@H](c2ccc(O)cc2)Oc2cc(O)cc(O)c21` [Naringenin], in experiment [1] (ZIKV-infected human astrocytes), the “Cell viability (efficacy, %) Astrocyte” value is given as 0.0%. Further, the IC50 in experiment [2] is 15.5 µM; in experiment [3] (Homo sapiens) it was 15.5 µM; in experiment [4] (Astrocyte), 17.3 µM. Besides, the Emax in experiment [2] is 66.3%; in experiment [3] (Homo sapiens), 63.4%; in experiment [4] (Astrocyte), 65.2%. The “Cell viability (efficacy, %) SNB-19” value in experiment [5] (ZIKV-infected SNB-19 cells) was 0.0%.

Consider `O=C(Nc1ccc(Br)cc1)c1cc(Br)cc(Br)c1O` [Tribromsalan], for which the “Cell viability (efficacy, %) Astrocyte” value in experiment [1] turned out to be 0.0%. For the same compound, the IC50 in experiment [2] was determined as 7.74 µM; in experiment [3] (Homo sapiens) it was 13.8 µM; in experiment [4] (Astrocyte), 6.9 µM. Besides, the Emax in experiment [2] came out at 107%; in experiment [3] (Homo sapiens) it was 108%; in experiment [4] (Astrocyte), 102%. Also, the “Cell viability (efficacy, %) SNB-19” value in experiment [5] is on record as 0.0%.

On to `CCC(CC)CC1(C(=O)Nc2ccccc2SC(=O)C(C)C)CCCCC1` [Dalcetrapib], for which the half-maximal inhibitory concentration (IC50) in experiment [1] (Astrocyte, ZIKV-infected human astrocytes, read-out: Cell viability (IC50, uM) Astrocyte) was 47.3 µM; in experiment [3] (Homo sapiens), 35.5 µM; in experiment [5] (ZIKV-infected SNB-19 cells), 35.5 µM. Further, the “Cell viability (efficacy, %) Astrocyte” value in experiment [1] (ZIKV-infected human astrocytes) is on record as 45.7%. The Emax was 50.2% in experiment [2], 50.2% in experiment [3] (Homo sapiens) and 0% in experiment [4] (Astrocyte). Also, the “Cell viability (efficacy, %) SNB-19” value in experiment [5] (ZIKV-infected SNB-19 cells) is on record as 110%.

Consider Malachite green oxalate, for which the “Cell viability (efficacy, %) Astrocyte” value in experiment [1] turned out to be 0.0%. Further, the “Caspase 3 (efficacy, %) SNB-19” value in experiment [2] is 0.0%. In addition, in experiment [3], the “Caspase 3 (efficacy, %) NPCs” value was determined as 62.7% and the half-maximal inhibitory concentration (IC50) was 21.8 µM. In experiment [4], the “Caspase 3 (efficacy, %) Astrocyte” value was 54.0% and the IC50 stood at 17.3 µM. Moreover, the “Cell viability (efficacy, %) SNB-19” value in experiment [5] is 0.0%.

On to `O=C(O)[C@@H](c1ccc(OCc2ccc3ccccc3n2)cc1)C1CCCC1` [Veliflapon], for which, in experiment [1] (ZIKV-infected human astrocytes), the “Cell viability (efficacy, %) Astrocyte” value was found to be 0.0%. The IC50 came to 13.8 µM in experiment [2], 9.75 µM in experiment [3] (Homo sapiens) and 9.2 µM in experiment [4] (Astrocyte). Further, the values for the Emax in experiment [2], in experiment [3] (Homo sapiens) and in experiment [4] (Astrocyte) were 70%, 74.3% and 65.9%, respectively. For the same compound, in experiment [5] (ZIKV-infected SNB-19 cells), the “Cell viability (efficacy, %) SNB-19” value stood at 0.0%.

Turning to `O=C(Nc1ncc([N+](=O)[O-])s1)c1cccs1` [Tenonitrozole], the “Cell viability (efficacy, %) Astrocyte” value in experiment [1] (ZIKV-infected human astrocytes) amounted to 0.0%. Moreover, the IC50 amounted to 1.95 µM in experiment [2], 1.3 µM in experiment [3] (Homo sapiens) and 2.06 µM in experiment [4] (Astrocyte). Moreover, the Emax amounted to 81.7% in experiment [2], 81.5% in experiment [3] (Homo sapiens) and 88.8% in experiment [4] (Astrocyte). In addition, in experiment [5] (ZIKV-infected SNB-19 cells), the “Cell viability (efficacy, %) SNB-19” value amounted to 0.0%.
